Test results published in patent publication US9981983B2, “Thienopyranones as kinase inhibitors” (SignalRx Pharmaceuticals, Inc., priority 2008, dated 2018).

system: PC3 cells; experiment: PC3 prostate cancer cell proliferation (WST); format: cell-based; settings: Homo sapiens, PC-3; 72 hours; read-out: IC50 PC3 Proliferation
Description: PC3 cells were obtained from the American Type Culture Collection (ATCC, Manassas, Va., Cat.# CRL-1435) Two thousand cells from the prostate cancer line PC3 were placed in 50 μL of complete RPMI 1640 media (Invitrogen, Carlsbad, Calif., Cat.#22400-105) with 10% fetal bovine serum (Invitrogen, Carlsbad, Calif., Cat.#10438-026) into each well of 96 well cell culture plates in a hexaplicate sampling pattern. A 50 μL aliquot of test compound (prepared from stock test compounds in DMSO diluted into media) was added to the appropriate well such that the final concentrations of test compound were 200, 40, 8, 1.6, 0.32, 0.064, 0.0128, 0.00256, and 0 μM and the final DMSO concentration was less than or equal to 0.2%.
The plates were incubated for 72 hours 37° C. in an atmosphere of 5% CO2. At the end of this time a 10 μL aliquot of WST solution (Roche Applied Science, Mannheim, Germany) was added into each of the wells. Cells were exposed to the WST solution for 4 hours. A SpectraMax Plus spectrophotometric plate reader (Molecular Devices, Sunnydale, Calif.) was then used to measure the optical density at 450 nm (OD450 nm). Sigmoidal curves were drawn for the dose responses and IC50 values were calculated using the software package GraphPad Prism4 (GraphPad Software, Inc., San Diego, Calif.).

Structure (SMILES) | IC50 [µM]
CN1CCOc2cc(-c3csc4c(=O)cc(N5CCOCC5)oc34)ccc21 [Compound 22] | 1.05
O=C(NCc1ccccc1)c1ccc(-c2csc3c(=O)cc(N4CCOCC4)oc23)cc1 [Compound 50, N-benzyl-4-(5-morpholino-7-oxo-7H-thieno[3,2-b]pyran-3-yl)benzamide] | 4.76
O=c1cc(N2CCOCC2)oc2c(-c3ccoc3)csc12 [Compound 27] | 9.26
CCN(CC)C(=O)c1csc2c(=O)cc(N3CCOCC3)oc12 [Compound 52] | 157
O=C(Nc1ccc(-c2csc3c(=O)cc(N4CCOCC4)oc23)cc1)c1ccccc1 [Compound 34] | 2
O=c1cc(N2CCOCC2)oc2c(C#Cc3cccc(F)c3)csc12 [Compound 39] | 3.31
O=c1cc(N2CCOCC2)oc2c(-c3ccc4[nH]ccc4c3)csc12 [Compound 19] | 8.13
O=C(Nc1ccncc1)c1ccc(-c2csc3c(=O)cc(N4CCOCC4)oc23)cc1 [Compound 59] | 17.5
O=c1cc(N2CCOCC2)oc2c(-c3cccs3)csc12 [Compound 14] | 4.36
COc1cc(C#Cc2csc3c(=O)cc(N4CCOCC4)oc23)cc(OC)c1 [Compound 40] | 1.8
O=c1cc(N2CCOCC2)oc2c(-c3ccc(Cl)nc3)csc12 [Compound 32] | 9.01
O=c1cc(N2CCOCC2)oc2c(-c3cccnc3)csc12 [Compound 3, 5-morpholino-3-(pyridin-3-yl)-7H-thieno[3,2-b]pyran-7-one] | 10.9
CN(C)c1ccc(C(=O)Nc2cccc(-c3csc4c(=O)cc(N5CCOCC5)oc34)c2)cc1 [Compound 49] | 3.18
O=c1cc(N2CCOCC2)oc2c(C#CCO)csc12 [Compound 24] | 28.2
O=c1cc(N2CCOCC2)oc2c(-c3cccc(C(F)(F)F)c3)csc12 [Compound 92] | 6.28
O=c1cc(N2CCOCC2)oc2c(-c3ccncc3)csc12 [Compound 2] | 18.5
O=c1cc(N2CCOCC2)oc2c(-c3ccco3)csc12 [Compound 4] | 5.9
O=c1cc(N2CCOCC2)oc2c(-c3cccc(O)c3)csc12 [Compound 99] | 16.6
O=c1cc(C2CCOCC2)oc2c(-c3ccccc3)cccc12 [Compound 67, 8-Phenyl-2-(tetrahydro-2H-pyran-4-yl)-4H-chromen-4-one] | 95.8
S=c1cc(N2CCOCC2)oc2c(-c3ccccc3)cccc12 [Compound 68, 2-morpholino-8-phenyl-4H-chromene-4-thione] | 34.8
COC(=O)c1cccc(-c2csc3c(=O)cc(N4CCOCC4)oc23)c1 [Compound 45] | 4.67

Structure (SMILES) | IC50 [µM]
O=c1cc(N2CCOCC2)oc2c(-c3cc4ccccc4[nH]3)csc12 [Compound 12] | 8.55
COC(=O)c1ccc(-c2csc3c(=O)cc(N4CCOCC4)oc23)cc1 [Compound 44] | 4.39
O=C(NCCN1CCOCC1)c1csc2c(=O)cc(N3CCOCC3)oc12 [Compound 90] | 19.9
CNc1ccc(-c2csc3c(=O)cc(N4CCOCC4)oc23)cc1 [Compound 41] | 2.07
COc1cc(-c2csc3c(=O)cc(N4CCOCC4)oc23)ccc1N [Compound 95] | 81.9
Nc1cccc(C#Cc2csc3c(=O)cc(N4CCOCC4)oc23)c1 [Compound 96] | 24.8
O=C(Nc1cccnc1)c1ccc(-c2csc3c(=O)cc(N4CCOCC4)oc23)cc1 [Compound 58] | 16.7
O=c1cc(N2CCOCC2)oc2c(-c3ccc4cc[nH]c4c3)csc12 [Compound 35] | 2.7 to 5.59
CN(C(=O)OC(C)(C)C)c1ccc(-c2csc3c(=O)cc(N4CCOCC4)oc23)cc1 [Compound 36] | 2.69
O=c1cc(N2CCOCC2)oc2c(-c3cccc(Cl)c3)csc12 [Compound 85, 3-(3-chlorophenyl)-5-morpholino-7H-thieno[3,2-b]pyran-7-one] | 3.45
O=c1cc(N2CCOCC2)oc2c(-c3ccc(O)cc3)csc12 [Compound 98] | 6.12
O=C(Nc1ccccn1)c1ccc(-c2csc3c(=O)cc(N4CCOCC4)oc23)cc1 [Compound 61] | 5
Cc1ccc(-c2csc3c(=O)cc(N4CCOCC4)oc23)cc1 [Compound 15] | 4.48
O=C(Nc1ccccc1)c1csc2c(=O)cc(N3CCOCC3)oc12 [Compound 51, 5-morpholino-7-oxo-N-phenyl-7H-thieno[3,2-b]pyran-3-carboxamide] | 23.8
O=c1cc(N2CCOCC2)oc2c(-c3ccc(C(F)(F)F)cc3)csc12 [Compound 20] | 774
O=c1cc(N2CCOCC2)oc2c(C#Cc3ccsc3)csc12 [Compound 23] | 7.35
COC(=O)c1scc(-c2csc3c(=O)cc(N4CCOCC4)oc23)c1O [Compound 21, methyl 3-hydroxy-4-(5-morpholino-7-oxo-7H-thieno[3,2-b]pyran-3-yl)thiophene-2-carboxylate] | 34.8
O=C(Nc1ccccn1)c1cccc(-c2csc3c(=O)cc(N4CCOCC4)oc23)c1 [Compound 66] | 6.91
O=C(NCCN1CCOCC1)c1cccc(-c2csc3c(=O)cc(N4CCOCC4)oc23)c1 [Compound 42] | 7.84
COc1cccc(-c2csc3c(=O)cc(N4CCOCC4)oc23)c1 [Compound 29] | 4.76
O=c1cc(N2CCOCC2)oc2c(-c3ccc(Cl)c(Cl)c3)csc12 [Compound 18] | 37.6

Structure (SMILES) | IC50 [µM]
O=c1cc(N2CCOCC2)oc2c(-c3ccc(O)c(Cl)c3)csc12 [Compound 93] | 6.14 to 9.43
O=c1cc(N2CCOCC2)oc2c(Cc3ccccc3)csc12 [Compound 1] | 20.2
O=C(Nc1cccc(-c2csc3c(=O)cc(N4CCOCC4)oc23)c1)c1cccnc1 [Compound 46] | 62.1
O=c1cc(N2CCOCC2)oc2c(-c3ccc(Br)cc3)csc12 [Compound 101] | 21.8
O=C(Nc1ccncc1)c1cccc(-c2csc3c(=O)cc(N4CCOCC4)oc23)c1 [Compound 64] | 17.9
CN(C)c1ccc(C#Cc2csc3c(=O)cc(N4CCOCC4)oc23)cc1 [Compound 37] | 2.5
O=C(NCc1ccccc1)c1csc2c(=O)cc(N3CCOCC3)oc12 [Compound 53] | 113
O=C(NCc1ccc(Cl)cc1)c1csc2c(=O)cc(N3CCOCC3)oc12 [Compound 88] | 22
O=C(NCc1ccccc1)c1cccc(-c2csc3c(=O)cc(N4CCOCC4)oc23)c1 [Compound 63] | 7.84
CN(C)c1ccc(NC(=O)c2cccc(-c3csc4c(=O)cc(N5CCOCC5)oc34)c2)cc1 [Compound 65] | 12.7
O=c1cc(N2CCOCC2)oc2c(-c3ccsc3)csc12 [Compound 26] | 5.6
COc1ccc(-c2csc3c(=O)cc(N4CCOCC4)oc23)cc1 [Compound 8] | 1.82
CN1CCN(c2ncc(-c3csc4c(=O)cc(N5CCOCC5)oc34)cn2)CC1 [Compound 43] | 9.35
O=C(Nc1ccc(-c2csc3c(=O)cc(N4CCOCC4)oc23)cc1)c1cccnc1 [Compound 55] | 1.05 to 1.5
Cc1cccc(-c2csc3c(=O)cc(N4CCOCC4)oc23)c1 [Compound 16] | 6.03
O=C(O)c1ccc(-c2csc3c(=O)cc(N4CCOCC4)oc23)cc1 [Compound 100] | 129
O=c1cc(N2CCOCC2)oc2c(-c3ccc(Cl)cc3)csc12 [Compound 17, 3-(4-chlorophenyl)-5-morpholino-7H-thieno[3,2-b]pyran-7-one] | 29
O=c1cc(N2CCOCC2)oc2c(-c3ccc4c(c3)OCO4)csc12 [Compound 7] | 1.74
O=c1cc(N2CCOCC2)oc2c(C#Cc3ccccc3)csc12 [Compound 31, 5-morpholino-3-(phenylethynyl)-7H-thieno[3,2-b]pyran-7-one] | 3.69

system: MCF7 breast cancer cells; experiment: Mammosphere cancer stem cell inhibition assay; format: cell-based; settings: 1 μM; first experiment
Description: A mammosphere cancer stem cell inhibition assay was set up using literature methods (T. M. Phillips et al. J. Natl. Cancer I. 2006, 98, 1777-1785, “Mammalian target of rapamycin contributes to the acquired apoptotic resistance of human mesothelioma multicellular spheroids”) using a subset of MCF7 breast cancer cells that posses the ability to evade anchorage independent apoptosis. Commercially available MCF7 breast cancer cells were cultured in MEM supplemented with 0.01 mg/mL of bovine insulin and 10% FBS at 37° C. in humidified atmosphere (5% CO2). Floating cells in the 2-day cultures were collected, washed, and resuspended in DMEM-F12 (50:50) supplemented with 0.4% BSA, 5 μg/mL bovine insulin, 20 ng/mL bFGF, and 10 ng/mL EGF. Cells were then passed through a […] sieve to remove any cell clusters and adjusted to a density of 10,000 cells/mL. Approximately 500 cells were plated in quadruplicate in a sterile poly-HEMA-treated 96-well plate. Cells were then treated with either control or test solutions consisting of the kinase inhibitor Lapatinib (1 μM), Cpd 28 (1 or 10 μM), Cpd 55 (1 or 10 μM), The numbers of mammospheres (clusters of cells numbering more than 4 or 5 per cluster) were then counted after 5-7 days.

Structure (SMILES) | inhibition of mammosphere production versus control
O=C(Nc1ccc(-c2csc3c(=O)cc(N4CCOCC4)oc23)cc1)c1cccnc1 [Compound 55] | approximately 60%

same assay, conditions: 1 μM; first experiment, control 38±4

Structure (SMILES) | number of mammospheres [mammospheres]
O=C(Nc1ccc(-c2csc3c(=O)cc(N4CCOCC4)oc23)cc1)c1cccnc1 [Compound 55] | 16±2

same assay, conditions: 1 μM; separate experiment

Structure (SMILES) | inhibition of mammosphere production versus control [%]
CN1CCN(c2ncc(-c3csc4c(=O)cc(N5CCOCC5)oc34)cn2)CC1 [Compound 43] | ~53

same assay, conditions: 1 μM; separate experiment, control 32±6

Structure (SMILES) | number of mammospheres [mammospheres]
CN1CCN(c2ncc(-c3csc4c(=O)cc(N5CCOCC5)oc34)cn2)CC1 [Compound 43] | 18±6

same assay, conditions: 10 μM; first experiment

Structure (SMILES) | inhibition of mammosphere production versus control [%]
O=C(Nc1ccc(-c2csc3c(=O)cc(N4CCOCC4)oc23)cc1)c1cccnc1 [Compound 55] | ~86

same assay, conditions: 10 μM; first experiment, control 38±4

Structure (SMILES) | number of mammospheres [mammospheres]
O=C(Nc1ccc(-c2csc3c(=O)cc(N4CCOCC4)oc23)cc1)c1cccnc1 [Compound 55] | 5±1

same assay, conditions: 10 μM; separate experiment

Structure (SMILES) | inhibition of mammosphere production versus control [%]
CN1CCN(c2ncc(-c3csc4c(=O)cc(N5CCOCC5)oc34)cn2)CC1 [Compound 43] | ~58

same assay, conditions: 10 μM; separate experiment, control 32±6

Structure (SMILES) | number of mammospheres [mammospheres]
CN1CCN(c2ncc(-c3csc4c(=O)cc(N5CCOCC5)oc34)cn2)CC1 [Compound 43] | 16±6
